Results on 5 molecules are retold here after patent US10597388B2, “Pyridazinone herbicides” (FMC CORPORATION, priority 2014, dated 2020).

What all share (type): in vivo
Test [1] concerns galium (catchweed bedstraw, Galium aparine). Put plainly: Test A greenhouse herbicide test, postemergence. The following applies: for Galium plant response rating: 0 is no effect, 100 is complete control. Put shortly: (§1)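 Pot-grown plants (loam soil/sand blend), 2–10 cm tall at the one- to two-leaf stage, received postemergence sprays of formulated test chemical. After about 10 d in the greenhouse, injury was rated visually against untreated controls on a 0 (no effect) to 100 (complete control) scale.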

Test [2] relates to blackgrass (Alopecurus myosuroides). As to the kind of experiment: Test A greenhouse herbicide test, postemergence. As to conditions: for Blackgrass plant response rating: 0 is no effect, 100 is complete control. In a few lines:
as §1

Test [3] concerns chickweed (common chickweed, Stellaria media). Put plainly: Test C greenhouse herbicide test, postemergence. In a few lines: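 Greenhouse postemergence spray on plants 2–18 cm tall; response judged visually after 13–15 d relative to untreated controls using a 0 (none) to 100 (full control) scale.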
Test [4] deals with rice (Oryza sativa). As to the kind of experiment: Test B flooded paddy test. The following applies: 250 g ai/ha, Flood; visual rating on scale of 0 to 100 where 0 is no effect and 100 is complete control; 13 to 15 d after treatment. In a few lines: (§2)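 Plants grown to the 2-leaf stage. At treatment, pots were flooded to 3 cm above the soil, compound was applied directly to the paddy water, and that depth was held throughout. After 13 to 15 d in the greenhouse, response was rated visually against controls on a 0 (no effect) to 100 (complete control) scale.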

Test [5] has as its system sedge, umbrella (small-flower umbrella sedge, Cyperus difformis). Put plainly: Test B flooded paddy test. As to conditions: 250 g ai/ha, Flood; visual rating on scale of 0 to 100 where 0 is no effect and 100 is complete control; 13 to 15 d after treatment. In a few lines: as §2
The subject of test [6] is barnyardgrass (Echinochloa crus-galli). As to the kind of experiment: Test B flooded paddy test. As to conditions: 250 g ai/ha, Flood; visual rating on scale of 0 to 100 where 0 is no effect and 100 is complete control; 13 to 15 d after treatment. Put shortly: as §2
In test [7] the test system is ducksalad (Heteranthera limosa). As to the kind of experiment: Test B flooded paddy test. As to conditions: 250 g ai/ha, Flood; visual rating on scale of 0 to 100 where 0 is no effect and 100 is complete control; 13 to 15 d after treatment. In a few lines:
as §2

Test [8] concerns oat, wild (wild oat, Avena fatua). Put plainly: Test D controlled growth environment herbicide test, pre- and postemergence. From the text:
Seeds of plant species selected from bluegrass (annual bluegrass, Poa annua), blackgrass (Alopecurus myosuroides), Canada thistle (Cirsium arvense), canarygrass (Phalaris minor), chickweed (common chickweed, Stellaria media), geranium, cutleaf (cutleaf geranium, Geranium dissectum), galium (catchweed bedstraw, Galium aparine), bromegrass, downy (downy bromegrass, Bromus tectorum), field poppy (Papaver rhoeas), field violet (Viola arvensis), foxtail, green (green foxtail, Setaria viridis), deadnettle (henbit deadnettle, Lamium amplexicaule), ryegrass, Italian (Italian ryegrass, Lolium multiflorum), kochia (Kochia scoparia), lambsquarters (Chenopodium album), oilseed rape (Brassica napus), pigweed (Amaranthus retroflexus), chamomile (scentless chamomile, Matricaria inodora), Russian thistle (Salsola kali), speedwell (bird's-eye speedwell, Veronica persica), barley, spring (spring barley, Hordeum vulgare), wheat, spring (spring wheat, Triticum aestivum), buckwheat, wild (wild buckwheat, Polygonum convolvulus), mustard, wild (wild mustard, Sinapis arvensis), oat, wild (wild oat, Avena fatua), radish, wild (wild radish, Raphanus raphanistrum), windgrass (Apera spica-venti), barley, winter (winter barley, Hordeum vulgare), and wheat, winter (winter wheat, Triticum aestivum) were planted into a silt loam soil and treated preemergence with test chemicals formulated in a non-phytotoxic solvent mixture which included a surfactant.
At the same time, these species were planted in pots containing Redi-Earth® planting medium (Scotts Company, 14111 Scottslawn Road, Marysville, Ohio 43041) comprising spaghnum peat moss, vermiculite, wetting agent and starter nutrients and treated with postemergence applications of the test chemicals formulated in the same manner. Plants ranged in height from 2 to 18 cm (1- to 4-leaf stage). Treated plants and controls were maintained in a controlled growth environment for 14 to 21 d after which time all species were compared to controls and visually evaluated. Plant response ratings, summarized in Table D, are based on a scale of 0 to 100 where 0 is no effect and 100 is complete control. A dash (-) response means no test result.

Setting [9] is: 125 g ai/ha, 0 to 100 scale where 0 is no effect and 100 is complete control.
Setting [10] is: Postemergence, 31 g ai/ha, 0 to 100 scale (0 no effect, 100 complete control).
[11] abbreviates: Postemergence, 125 g ai/ha, scale 0 to 100, 0 is no effect, 100 is complete control.
[12] abbreviates: Postemergence, 250 g ai/ha, scale 0 to 100, 0 no effect, 100 complete control, 13 to 15 d.
Where [13] appears, read: postemergence, 62 g ai/ha, scale 0 to 100, 0 no effect, 100 complete control.
The mark [14] stands for this setting: Postemergence, 31 g ai/ha, scale 0 to 100 (0 no effect, 100 complete control).
Where [15] appears, read: Postemergence, 125 g ai/ha, visual rating on scale 0 (no effect) to 100 (complete control), 14 to 21 d.
Where [16] appears, read: Postemergence, 250 g ai/ha, scale 0 to 100 (0 no effect, 100 complete control).
Setting [17] is: Preemergence, 125 g ai/ha, scale 0 to 100 (0 no effect, 100 complete control).
Where [18] appears, read: Preemergence, 250 g ai/ha, scale 0 to 100 (0 no effect, 100 complete control).
The mark [19] stands for this setting: 125 g ai/ha, 0 to 100 scale, 0 no effect, 100 complete control.
Where [20] appears, read: 500 g ai/ha, visual rating after approx. 10 d, 0 to 100 scale (0 no effect, 100 complete control).

With `CCOC(=O)Oc1c(C)nn(C)c(=O)c1-c1c(C)sc2ccc(C)cc12` [Compound 82], the “Plant response rating, Galium” value in test [1] (setting [9]) was found to be 90. Moreover, in test [1] (500 g ai/ha, 0 to 100 scale), the “Galium plant response rating” value came to 90. Moreover, the “Plant response rating, Blackgrass” value in test [2] (setting [9]) is 70. For the same molecule, the “Blackgrass plant response rating” value in test [2] (500 g ai/ha, 0 to 100 scale) is recorded as 70. In addition, the “Chickweed plant response rating” value in test [3] (setting [10]) and in test [3] (setting [13]) was 90 in each case. Besides, the “Plant response rating, Chickweed” value in test [3] (setting [11]) is given as 90; in test [3] (setting [12]), 98. The “Plant response rating, Rice” value in test [4] stood at 0. The “Plant response rating, Sedge, Umbrella” value in test [5] was 0. Also, the “Plant response rating, Barnyardgrass” value in test [6] stood at 0. In addition, the “Plant response rating, Ducksalad” value in test [7] was determined as 0. The “Oat, Wild plant response rating” value in test [8] (setting [14]) came out at 90. In addition, the “Plant response rating, Oat, Wild” value in test [8] (setting [15]) turned out to be 95; in test [8] (setting [16]), 95; in test [8] (setting [17]), 95; in test [8] (setting [18]) it was 95; in test [8] (setting [13]), 90. Further, the “Plant response rating (scale of 0 to 100), Oat, Wild” value in test [8] (Preemergence, 31 g ai/ha) amounted to 80; in test [8] (Preemergence, 62 g ai/ha), 85.
Regarding `CCOC(=O)Oc1c(C)nn(C)c(=O)c1-c1c(C)sc2c(C)cc(C)cc12` [Compound 83], in test [1] (setting [9]), the “Plant response rating, Galium” value is recorded as 100. In addition, the “Galium plant response rating” value in test [1] (500 g ai/ha, 0 to 100 scale) is reported as 100. For the same molecule, the “Plant response rating, Blackgrass” value in test [2] (setting [9]) is listed as 90. Moreover, the “Blackgrass plant response rating” value in test [2] (500 g ai/ha, 0 to 100 scale) is reported as 100. The “Chickweed plant response rating” value is recorded as 90 in test [3] (setting [10]) and 95 in test [3] (setting [13]). The “Plant response rating, Chickweed” value in test [3] (setting [11]) was determined as 95; in test [3] (setting [12]), 100. For the same molecule, the “Plant response rating, Rice” value in test [4] turned out to be 30. Moreover, the “Plant response rating, Sedge, Umbrella” value in test [5] is recorded as 90. Besides, the “Plant response rating, Barnyardgrass” value in test [6] is 60. In test [7], the “Plant response rating, Ducksalad” value worked out at 70. Also, the “Oat, Wild plant response rating” value in test [8] (setting [14]) was determined as 80. In addition, the “Plant response rating, Oat, Wild” value in test [8] (setting [15]) stood at 90; in test [8] (setting [16]), 95; in test [8] (setting [17]), 90; in test [8] (setting [18]) it was 90; in test [8] (setting [13]), 85. In addition, the “Plant response rating (scale of 0 to 100), Oat, Wild” value in test [8] (Preemergence, 31 g ai/ha) turned out to be 80; in test [8] (Preemergence, 62 g ai/ha) it was 85.
Take `Cc1cc(C)c2sc(C)c(-c3c(OC(=O)OCCCl)c(C)nn(C)c3=O)c2c1` [Compound 85]: the “Plant response rating, Galium” value in test [1] (setting [9]) was found to be 90. Further, the “Galium plant response rating” value in test [1] (500 g ai/ha, 0 to 100 scale) stood at 100. Moreover, in test [2] (setting [9]), the “Plant response rating, Blackgrass” value worked out at 90. Besides, the “Blackgrass plant response rating” value in test [2] (500 g ai/ha, 0 to 100 scale) is 90. For the same molecule, the “Chickweed plant response rating” value in test [3] (setting [10]) is given as 90; in test [3] (setting [13]) it was 95. In addition, the “Plant response rating, Chickweed” value is 95 in test [3] (setting [11]) and 100 in test [3] (setting [12]). The “Plant response rating, Rice” value in test [4] is reported as 50. Moreover, in test [5], the “Plant response rating, Sedge, Umbrella” value worked out at 80. Also, the “Plant response rating, Barnyardgrass” value in test [6] is 50. Further, the “Plant response rating, Ducksalad” value in test [7] was 50. In addition, the “Oat, Wild plant response rating” value in test [8] (setting [14]) worked out at 75. Also, the “Plant response rating, Oat, Wild” value in test [8] (setting [15]) is on record as 95; in test [8] (setting [16]), 100; in test [8] (setting [17]) it was 85; in test [8] (setting [18]), 90; in test [8] (setting [13]), 85. The “Plant response rating (scale of 0 to 100), Oat, Wild” value in test [8] (Preemergence, 31 g ai/ha) was determined as 75; in test [8] (Preemergence, 62 g ai/ha), 75.
On to `C#CCOC(=O)Oc1c(C)nn(C)c(=O)c1-c1c(C)sc2ccc(C)cc12` [Compound 87], for which the “Plant response rating, Galium” value in test [1] (setting [9]) came to 90. Moreover, the “Galium plant response rating” value in test [1] (500 g ai/ha, 0 to 100 scale) is 90. In addition, the “Plant response rating, Blackgrass” value in test [2] (setting [9]) was 80. For the same molecule, the “Blackgrass plant response rating” value in test [2] (500 g ai/ha, 0 to 100 scale) came to 80. The “Chickweed plant response rating” value in test [3] (setting [10]) and in test [3] (setting [13]) was 90 each time. Further, the “Plant response rating, Chickweed” value worked out at 95 in test [3] (setting [11]) and 98 in test [3] (setting [12]). In addition, the “Plant response rating, Rice” value in test [4] is on record as 0. The “Plant response rating, Sedge, Umbrella” value in test [5] worked out at 0. Further, the “Plant response rating, Barnyardgrass” value in test [6] is on record as 0. In addition, the “Plant response rating, Ducksalad” value in test [7] was 0. In addition, the “Oat, Wild plant response rating” value in test [8] (setting [14]) amounted to 85. Besides, the “Plant response rating, Oat, Wild” value was determined as 98 in test [8] (setting [15]); 100 in test [8] (setting [16]); 90 in test [8] (setting [17]); 95 in test [8] (setting [18]); 95 in test [8] (setting [13]). Also, the “Plant response rating (scale of 0 to 100), Oat, Wild” value in test [8] (Preemergence, 31 g ai/ha) amounted to 80; in test [8] (Preemergence, 62 g ai/ha) it was 85.
`CC(=O)Oc1c(C)nn(C)c(=O)c1-c1c(C)cc(C)c2ccccc12` [Compound 153]: the “Plant response rating, Galium” value in test [1] (setting [19]) and in test [1] (setting [20]) was 100 throughout. Moreover, the “Plant response rating, Blackgrass” value in test [2] (setting [19]) and in test [2] (setting [20]) was 90 in each case. For the same molecule, the “Plant response rating, Chickweed” value in test [3] (setting [14]) is given as 90; in test [3] (setting [12]) it was 98. The “Chickweed plant response rating” value is listed as 95 in test [3] (Postemergence, 62 g ai/ha, 0 to 100 scale (0 no effect, 100 complete control)) and 98 in test [3] (postemergence, 125 g ai/ha, scale 0 to 100, 0 no effect, 100 complete control). Further, the “Plant response rating, Rice” value in test [4] was determined as 0. In addition, the “Plant response rating, Sedge, Umbrella” value in test [5] is listed as 0. Also, in test [6], the “Plant response rating, Barnyardgrass” value is reported as 0. The “Plant response rating, Ducksalad” value in test [7] is on record as 0. For the same molecule, the “Oat, Wild plant response rating” value in test [8] (setting [14]) was 85. In addition, the “Plant response rating, Oat, Wild” value in test [8] (setting [15]) came out at 90; in test [8] (setting [16]), 98; in test [8] (setting [17]), 98; in test [8] (setting [18]) it was 98; in test [8] (setting [13]), 85. Moreover, the “Plant response rating (scale of 0 to 100), Oat, Wild” value was determined as 80 in test [8] (Preemergence, 31 g ai/ha) and 95 in test [8] (Preemergence, 62 g ai/ha).
